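Exposure lasted 48 hours, with cells grown in 96-well plates and compounds tested at five concentrations. Here, GI50 denotes the concentration required for 50% inhibition of growth. The concentration for full growth arrest is given as TGI.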 A value given as a limit tells only on which side of the number the result lay.

Holding throughout (assay): NCI tumour cell line growth inhibition, 48 h
For assay [1], the system named is LOX IMVI melanoma.
Assay [2] deals with SW-620 colon.
The subject of assay [3] is PC-3 prostate.
In assay [4] the test system is 786-0 renal.
Assay [5] relates to RPMI-8226 leukemia.
Assay [6] concerns SN12C renal.
Assay [7] relates to HOP-62 NSCLC.
Assay [8] deals with KM12 colon.
The test system of assay [9] is ACHN renal.
Assay [10] deals with UACC-62 melanoma.

Take `Nc1ccc(/C=C/c2ccc3ncccc3c2)cc1`: the GI50 is 75 µM in [1]; greater than 100 µM in assay [2]; 7.29 µM in assay [3]; greater than 100 µM in assay [4]; 6.89 µM in [5]; greater than 100 µM in assay [6]. Also, the GI50 in assay [7] is greater than 100 µM; in assay [8] it was 49.1 µM; in [9] it was greater than 100 µM; in assay [10], greater than 100 µM. Besides, the TGI in assay [1], in assay [2], in [3], in assay [4], in assay [5] and in assay [6] was greater than 100 µM in each case. For the same compound, the TGI in assay [7], in [8], in [9] and in assay [10] was greater than 100 µM each time.
In the case of `CC(C)=CCC/C(C)=C/CC/C(C)=C/CSC[C@H](NC(=O)CCCCCN1CCN(C)CC1)C(=O)NC1CCCCCC1`, the GI50 is 1.76 µM in assay [1]; 1.87 µM in assay [2]; 1.89 µM in assay [3]; 1.77 µM in assay [4]; 1.98 µM in assay [5]; 2.05 µM in assay [6]. In addition, the GI50 in assay [7] is 4.42 µM; in [8] it was 1.97 µM; in assay [9], 1.75 µM; in assay [10], 1.78 µM. The TGI in assay [1] is 3.29 µM; in assay [2], 3.88 µM; in [3], 4.31 µM; in assay [4] it was 3.19 µM; in [5], 4.67 µM; in [6], 4.51 µM. Besides, the TGI in assay [7] amounted to 19.3 µM; in [8], 3.86 µM; in assay [9], 3.21 µM; in [10], 3.44 µM.
Take `CCC(=C(c1ccc(OCCN2CCCCC2)cc1)c1ccc(OCCN2CCCCC2)cc1)c1ccc(Cl)cc1`: the GI50 is 2.31 µM in assay [1]; 4.1 µM in [2]; greater than 16.7 µM in [3]; 2.51 µM in [4]; 3.6 µM in [5]; greater than 16.7 µM in assay [6]. In addition, the GI50 in [7] is greater than 16.7 µM; in assay [8], greater than 16.7 µM; in [9], 7.12 µM; in assay [10], 3.09 µM. The TGI in assay [1] is 4.84 µM; in assay [2] it was greater than 16.7 µM; in [3], greater than 16.7 µM; in [4], 5.09 µM; in assay [5], greater than 16.7 µM; in assay [6], greater than 16.7 µM. Moreover, the TGI in [7] is greater than 16.7 µM; in assay [8], greater than 16.7 µM; in assay [9], greater than 16.7 µM; in assay [10], 6.2 µM.
Consider `CC(C)=CCc1cc2c(cc1O)C1=C(C(=O)C3=C(NCCS3(=O)=O)C1=O)C(C=C(C)C)O2` (stereo not given), for which the GI50 in assay [1] was 4.48 µM; in assay [2], 5 µM; in assay [3], 5.58 µM; in assay [4], 9.97 µM; in [5], 5.56 µM; in assay [6], 2.78 µM. In addition, the GI50 in [7] is 8.59 µM; in assay [8], 7.12 µM; in [9] it was 10.7 µM; in assay [10] it was 3.39 µM. Besides, the TGI in [1] was greater than 16.7 µM; in assay [2] it was greater than 16.7 µM; in [3], greater than 16.7 µM; in assay [4], greater than 16.7 µM; in assay [5], greater than 16.7 µM; in assay [6], 5.69 µM. For the same compound, the TGI was greater than 16.7 µM in assay [7], greater than 16.7 µM in assay [8], greater than 16.7 µM in assay [9] and 8.79 µM in assay [10].
Regarding `C[N+]1([O-])C2CCC1CC(OC(=O)C(CO)c1ccccc1)C2` (stereo not given), the TGI in assay [1], in [2], in assay [3], in assay [4], in [5] and in assay [6] was greater than 100 µM each time. In addition, the TGI in assay [7], in assay [8], in assay [9] and in [10] was greater than 100 µM in each case.
Take `Cn1cc(-c2ccc3nc(-c4ccc(CC(=O)Nc5cc(C(C)(C)C)no5)cc4)cnc3c2)cn1`: the GI50 was 0.036 µM in assay [1]; 0.0477 µM in [2]; 0.112 µM in assay [3]; 0.0375 µM in assay [4]; 0.056 µM in [5]; 0.0268 µM in assay [6]. The GI50 in assay [7] was 0.0465 µM; in assay [8], 0.00173 µM; in assay [9], 0.0144 µM; in assay [10], 0.0297 µM. Further, the TGI in [1], in assay [2], in assay [3], in assay [4], in [5] and in assay [6] was greater than 3 µM in each case. Further, the TGI in assay [7], in [8], in [9] and in assay [10] was greater than 3 µM throughout.
`CCN(Cc1ccc(OC)cc1)c1ccc(CO)c(Cl)c1`: the GI50 in assay [1] was 13.2 µM; in [2], 1.04 µM; in assay [3], 21.7 µM; in assay [4], 10.6 µM; in [5], 6.23 µM; in assay [6], 14.5 µM. The GI50 was 2.05 µM in assay [7], 18.3 µM in assay [8], 19.3 µM in assay [9] and 0.0986 µM in assay [10]. The TGI is 27.4 µM in assay [1]; greater than 100 µM in [2]; greater than 81.8 µM in [3]; 45.4 µM in assay [4]; 46.1 µM in assay [5]; 39.3 µM in assay [6]. The TGI in [7] was 29.4 µM; in [8] it was 44.7 µM; in [9] it was greater than 81.5 µM; in assay [10] it was 0.686 µM.
On to `O=[N+]([O-])c1ccc(C2=NCCO2)cc1`, for which the GI50 in assay [1], in assay [2], in assay [3], in assay [4], in assay [5] and in [6] was greater than 100 µM in each case. The GI50 in assay [7], in assay [8], in [9] and in assay [10] was greater than 100 µM in each case. Further, the TGI in assay [1], in assay [2], in [3], in [4], in assay [5] and in assay [6] was greater than 100 µM each time. The TGI in assay [7], in [8], in assay [9] and in assay [10] was greater than 100 µM throughout.

Values taken from PubChem BioAssay (NCI).
